# Reference: PMC7919409, “Crystal structures of adenylylated and unadenylylated PII protein GlnK from Corynebacterium glutamicum” (Acta Crystallographica. Section D, Structural Biology, 2021)
# Target: T1, adGlnK (adenylylated GlnK) (Corynebacterium glutamicum, UniProt H7C694)
# T1 construct: gene glnB; full length, untagged (stop codon inserted before Xa-Strep tag), produced in C. glutamicum; Tyr51 O-adenylylated (AMP covalently attached); homotrimer, hexamer in crystal; 112 residues
# Test: X-ray crystal structure, […] A
# Format: binding
# Details: fortuitously bound, co-purified (no nucleotide added), one of six effector sites at subunit interface, Tyr51 adenylylated, Mg, Ca, pH 7.1, 292 K
# T1 sequence (H7C694 entry or part of it): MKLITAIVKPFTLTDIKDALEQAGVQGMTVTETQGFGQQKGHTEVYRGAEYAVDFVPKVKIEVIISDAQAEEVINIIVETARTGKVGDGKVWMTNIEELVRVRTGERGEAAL
Structure (SMILES),"X-ray crystal structure, 1.8 A","X-ray crystal structure, 1.8 A (non-covalent AMP in ATP-binding pocket, distinct from)"
Nc1ncnc2c1ncn2[C@@H]1O[C@H](COP(=O)(O)OP(=O)(O)O)[C@@H](O)[C@H]1O [ADP],fortuitous binding of AMP and ADP was observed in the remaining two binding sites,–
Nc1ncnc2c1ncn2[C@@H]1O[C@H](COP(=O)(O)O)[C@@H](O)[C@H]1O [AMP],–,fortuitous binding of AMP and ADP was observed in the remaining two binding sites
